Measured values: ChEMBL document CHEMBL4602679, “Polyesterified Sesquiterpenoids from the Seeds of Celastrus paniculatus as Lifespan-Extending Agents for the Nematode Caenorhabditis elegans” (2020)

Columns and labels:
Caenorhabditis elegans [1] = assay: Induction of lifespan expansion in late L4 larval stage of Caenorhabditis elegans Bristol N2 assessed as survival time at 50 uM (reference value: 15.19 =/- 0.53 day); format: functional
Caenorhabditis elegans [2] = assay: Induction of lifespan expansion in late L4 larval stage of Caenorhabditis elegans Bristol N2 assessed as increase in survival time at 50 uM relative to control; format: functional

SMILES	Survival (Caenorhabditis elegans [1])	survival at 50 µM (Caenorhabditis elegans [2])
CC(=O)OC[C@@]12[C@@H](OC(C)=O)CC[C@@H](C)[C@@]13C[C@@H]([C@H](OC(C)=O)[C@@H]2OC(=O)c1ccoc1)C(C)(C)O3	16.38 days	
CC(=O)OC[C@@]12[C@@H](OC(C)=O)CC[C@@H](C)[C@]13OC(C)(C)[C@H]([C@@H](OC(C)=O)[C@@H]2OC(=O)c1ccoc1)[C@H]3OC(C)=O	16.83 days	11%
CC(=O)OC[C@@]12[C@@H](OC(C)=O)CC[C@](C)(O)[C@]13OC(C)(C)[C@H]([C@H](OC(=O)c1ccoc1)[C@@H]2OC(=O)c1ccoc1)[C@H]3OC(C)=O	17.39 days	14%
CC(=O)OC[C@@]12[C@@H](OC(C)=O)CC[C@](C)(O)[C@]13OC(C)(C)[C@H]([C@H](OC(C)=O)[C@H]2OC(=O)c1ccoc1)[C@H]3OC(C)=O	17.56 days	16%
CC(=O)OC[C@@]12[C@@H](OC(C)=O)CC[C@](C)(O)[C@]13OC(C)(C)[C@H]([C@@H](OC(C)=O)[C@@H]2OC(=O)c1ccoc1)[C@H]3OC(C)=O	15.29 days	
CC(=O)OC[C@@]12[C@@H](OC(C)=O)CC[C@@H](C)[C@]13OC(C)(C)[C@H]([C@H](OC(C)=O)[C@H]2OC(=O)c1ccccc1)[C@H]3OC(C)=O	17.77 days	17%
CC(=O)OC[C@@]12[C@@H](OC(C)=O)CC[C@@H](C)[C@@]13C[C@@H]([C@H](OC(C)=O)[C@H]2OC(=O)c1ccoc1)C(C)(C)O3	17 days	12%
CC(=O)O[C@H]1CC[C@](C)(O)[C@]23OC(C)(C)[C@H]([C@H](OC(=O)c4ccoc4)[C@H](OC(=O)c4ccoc4)[C@]12CO)[C@H]3OC(C)=O	18 days	18%
CC(=O)OC[C@]12[C@@H](OC(=O)c3ccoc3)[C@@H](OC(C)=O)[C@@H]3C[C@]1(OC3(C)C)[C@H](C)C[C@@H](OC(C)=O)[C@@H]2OC(C)=O	15.46 days	
CC(=O)OC[C@@]12[C@@H](OC(C)=O)CC[C@](C)(O)[C@]13OC(C)(C)[C@H]([C@H](OC(C)=O)[C@@H]2OC(=O)c1ccoc1)[C@H]3OC(C)=O	17.67 days	16%
